Values joined by “and” are separate entries in the source; they are usually repeats but may differ in a detail not shown here. Equal entries are not always repeated.
Tested on: VA-ES-BJ tumor spheroid viability
Experiment: Anticancer human tumor VA-ES-BJ cell line growth inhibition;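 further: spheroids exposed to compounds for seven days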;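 on viability, T/C: percent of DMSO vehicle control viability so 100% = untreated growth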
Conditions: spheroids with HUVEC and MSC; for viability, T/C: stronger effect = lower value
Procedure, shortened: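 Single agents and combinations were tested on spheroids built from tumor cells plus HUVEC and hMSC, at half-log dilutions starting at or near clinical Cmax, else 10 microM; final DMSO 0.25% (v/v).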

[1] = curve of first compound, second compound 0.003 µM
[2] = second compound 0.003 µM, first compound 0.0949 µM
[3] = second compound 0.003 µM, first compound 0.3 µM
[4] = second compound 0.003 µM, first compound 0.949 µM
[5] = second compound 0.003 µM, first compound 3 µM

Question: For Cn1ncnc1[C@H]1c2n[nH]c(=O)c3cc(F)cc(c23)N[C@@H]1c1ccc(F)cc1 + COc1cc2c(cc1O)CCNC21CSC2c3c(OC(C)=O)c(C)c4c(c3C(COC1=O)N1C(O)C3Cc5cc(C)c(OC)c(O)c5C(C21)N3C)OCO4, which IC50 (curve of first compound, second compound 30 pM) is on record?
Answer: The IC50 was 329 nM.

Question: What about the IC50 (curve of first compound, second compound 94.9 pM) of the same compound?
Answer: Its IC50 is 155 nM.

Question: What about the IC50 (curve of first compound, second compound 0.0003 µM) of the same compound?
Answer: The IC50 was less than 9.49 nM.

Question: And the IC50 (curve of first compound, second compound 0.000949 µM)?
Answer: The IC50 was less than 9.49 nM.

Question: What about the IC50 [1] of the same compound?
Answer: Its IC50 is less than 9.49 nM.

Question: What about the viability, T/C (second compound 30 pM, first compound 0.00949 µM) of the same compound?
Answer: Its viability, T/C is 92.8%.

Question: And the viability, T/C (second compound 30 pM, first compound 0.03 µM)?
Answer: The viability, T/C was 79.3%.

Question: And the viability, T/C (second compound 30 pM, first compound 0.0949 µM)?
Answer: The viability, T/C was 67.9%.

Question: And the viability, T/C (second compound 30 pM, first compound 0.3 µM)?
Answer: The viability, T/C was 54.9%.

Question: And the viability, T/C (second compound 30 pM, first compound 0.949 µM)?
Answer: Its viability, T/C is 29.8%.

Question: What about the viability, T/C (second compound 30 pM, first compound 3 µM) of the same compound?
Answer: Its viability, T/C is 6.51%.

Question: What about the viability, T/C (second compound 94.9 pM, first compound 0.00949 µM) of the same compound?
Answer: Its viability, T/C is 67.8%.

Question: And the viability, T/C (second compound 94.9 pM, first compound 0.03 µM)?
Answer: Its viability, T/C is 70.4%.

Question: And the viability, T/C (second compound 94.9 pM, first compound 0.0949 µM)?
Answer: The viability, T/C was 52.8%.

Question: What about the viability, T/C (second compound 94.9 pM, first compound 0.3 µM) of the same compound?
Answer: The viability, T/C was 42.1%.

Question: And the viability, T/C (second compound 94.9 pM, first compound 0.949 µM)?
Answer: Its viability, T/C is 24%.

Question: What about the viability, T/C (second compound 94.9 pM, first compound 3 µM) of the same compound?
Answer: The viability, T/C was 6.18%.

Question: And the viability, T/C (second compound 0.0003 µM, first compound 0.00949 µM)?
Answer: The viability, T/C was 33.9%.

Question: What about the viability, T/C (second compound 0.0003 µM, first compound 0.03 µM) of the same compound?
Answer: Its viability, T/C is 29.3%.

Question: And the viability, T/C (second compound 0.0003 µM, first compound 0.0949 µM)?
Answer: Its viability, T/C is 23.9%.

Question: What about the viability, T/C (second compound 0.0003 µM, first compound 0.3 µM) of the same compound?
Answer: Its viability, T/C is 19.7%.

Question: And the viability, T/C (second compound 0.0003 µM, first compound 0.949 µM)?
Answer: Its viability, T/C is 8.26%.

Question: What about the viability, T/C (second compound 0.0003 µM, first compound 3 µM) of the same compound?
Answer: The viability, T/C was 4.82%.

Question: What about the viability, T/C (second compound 0.000949 µM, first compound 0.00949 µM) of the same compound?
Answer: The viability, T/C was 3.64%.

Question: What about the viability, T/C (second compound 0.000949 µM, first compound 0.03 µM) of the same compound?
Answer: Its viability, T/C is 3.04%.

Question: What about the viability, T/C (second compound 0.000949 µM, first compound 0.0949 µM) of the same compound?
Answer: Its viability, T/C is 2.49%.

Question: What about the viability, T/C (second compound 0.000949 µM, first compound 0.3 µM) of the same compound?
Answer: Its viability, T/C is 3.23%.

Question: What about the viability, T/C (second compound 0.000949 µM, first compound 0.949 µM) of the same compound?
Answer: The viability, T/C was 1.4%.

Question: And the viability, T/C (second compound 0.000949 µM, first compound 3 µM)?
Answer: Its viability, T/C is 0.45%.

Question: What about the viability, T/C (second compound 0.003 µM, first compound 0.00949 µM) of the same compound?
Answer: The viability, T/C was 1.48%.

Question: And the viability, T/C (second compound 0.003 µM, first compound 0.03 µM)?
Answer: The viability, T/C was 1.15%.

Question: What about the viability, T/C [2] of the same compound?
Answer: The viability, T/C was 1.53%.

Question: And the viability, T/C [3]?
Answer: Its viability, T/C is 2.52%.

Question: And the viability, T/C [4]?
Answer: The viability, T/C was 1.19%.

Question: And the viability, T/C [5]?
Answer: The viability, T/C was 2.91%.

Question: With Cc1cc(C)c(CNC(=O)c2cc(-c3ccc(CN4CCOCC4)cc3)cc3c2cnn3C2CCCC2)c(=O)[nH]1 as the compound, how does the viability, T/C (compound 0.0316 µM) read?
Answer: Its viability, T/C is 101% and 98% and 103%.

Question: What about the viability, T/C (compound 0.1 µM) of the same compound?
Answer: Its viability, T/C is 100% and 106% and 101%.

Question: What about the viability, T/C (compound 0.316 µM) of the same compound?
Answer: The viability, T/C was 98.5% and 97.2% and 99.1%.

Question: What about the viability, T/C (compound 1 µM) of the same compound?
Answer: Its viability, T/C is 103% (2×) and 100%.

Question: And the viability, T/C (compound 3.16 µM)?
Answer: Its viability, T/C is 102% and 107% and 112%.

Question: What about the viability, T/C (compound 10 µM) of the same compound?
Answer: The viability, T/C was 91.8% and 91.9% and 104%.

Question: What about the IC50 (curve of compound) of the same compound?
Answer: The IC50 was greater than 10000 nM.

Question: O=C(c1cc(Cc2n[nH]c(=O)c3ccccc23)ccc1F)N1CCN(C(=O)C2CC2)CC1 + CC[C@@]1(O)C(=O)OCc2c1cc1n(c2=O)Cc2cc3c(CN(C)C)c(O)ccc3nc2-1 was tested. Which IC50 [1] did it give?
Answer: Its IC50 is 12000 nM.

Question: And the IC50 (curve of first compound, second compound 0.00949 µM)?
Answer: Its IC50 is 2080 nM.

Question: What about the IC50 (curve of first compound, second compound 0.03 µM) of the same compound?
Answer: Its IC50 is less than 94.9 nM.

Question: And the IC50 (curve of first compound, second compound 0.0949 µM)?
Answer: Its IC50 is less than 94.9 nM.

Question: What about the IC50 (curve of first compound, second compound 0.3 µM) of the same compound?
Answer: The IC50 was less than 94.9 nM.

Question: And the viability, T/C [2]?
Answer: The viability, T/C was 79.5%.

Question: And the viability, T/C [3]?
Answer: Its viability, T/C is 86.5%.

Question: And the viability, T/C [4]?
Answer: The viability, T/C was 84.7%.

Question: And the viability, T/C [5]?
Answer: The viability, T/C was 72.9%.

Question: And the viability, T/C (second compound 0.003 µM, first compound 9.49 µM)?
Answer: Its viability, T/C is 54.3%.

Question: What about the viability, T/C (second compound 0.003 µM, first compound 30 µM) of the same compound?
Answer: Its viability, T/C is 35.1%.

Question: And the viability, T/C (second compound 0.00949 µM, first compound 0.0949 µM)?
Answer: The viability, T/C was 54.4%.

Question: What about the viability, T/C (second compound 0.00949 µM, first compound 0.3 µM) of the same compound?
Answer: The viability, T/C was 62%.

Question: And the viability, T/C (second compound 0.00949 µM, first compound 0.949 µM)?
Answer: Its viability, T/C is 56.3%.

Question: And the viability, T/C (second compound 0.00949 µM, first compound 3 µM)?
Answer: Its viability, T/C is 46%.

Question: What about the viability, T/C (second compound 0.00949 µM, first compound 9.49 µM) of the same compound?
Answer: The viability, T/C was 30.9%.

Question: And the viability, T/C (second compound 0.00949 µM, first compound 30 µM)?
Answer: Its viability, T/C is 13.7%.

Question: And the viability, T/C (second compound 0.03 µM, first compound 0.0949 µM)?
Answer: The viability, T/C was 11.3%.

Question: What about the viability, T/C (second compound 0.03 µM, first compound 0.3 µM) of the same compound?
Answer: The viability, T/C was 11.9%.

Question: What about the viability, T/C (second compound 0.03 µM, first compound 0.949 µM) of the same compound?
Answer: Its viability, T/C is 11.7%.

Question: What about the viability, T/C (second compound 0.03 µM, first compound 3 µM) of the same compound?
Answer: The viability, T/C was 8.85%.

Question: And the viability, T/C (second compound 0.03 µM, first compound 9.49 µM)?
Answer: The viability, T/C was 4.72%.

Question: And the viability, T/C (second compound 0.03 µM, first compound 30 µM)?
Answer: The viability, T/C was 3.5%.

Question: And the viability, T/C (second compound 0.0949 µM, first compound 0.0949 µM)?
Answer: Its viability, T/C is 6.59%.

Question: What about the viability, T/C (second compound 0.0949 µM, first compound 0.3 µM) of the same compound?
Answer: The viability, T/C was 7.45%.

Question: What about the viability, T/C (second compound 0.0949 µM, first compound 0.949 µM) of the same compound?
Answer: The viability, T/C was 7.51%.

Question: And the viability, T/C (second compound 0.0949 µM, first compound 3 µM)?
Answer: Its viability, T/C is 7.62%.

Question: What about the viability, T/C (second compound 0.0949 µM, first compound 9.49 µM) of the same compound?
Answer: Its viability, T/C is 6.91%.

Question: What about the viability, T/C (second compound 0.0949 µM, first compound 30 µM) of the same compound?
Answer: The viability, T/C was 2.51%.

Question: What about the viability, T/C (second compound 0.3 µM, first compound 0.0949 µM) of the same compound?
Answer: The viability, T/C was 7.75%.

Question: And the viability, T/C (second compound 0.3 µM, first compound 0.3 µM)?
Answer: Its viability, T/C is 8%.

Question: And the viability, T/C (second compound 0.3 µM, first compound 0.949 µM)?
Answer: Its viability, T/C is 8.29%.

Question: And the viability, T/C (second compound 0.3 µM, first compound 3 µM)?
Answer: The viability, T/C was 8.19%.

Question: What about the viability, T/C (second compound 0.3 µM, first compound 9.49 µM) of the same compound?
Answer: Its viability, T/C is 7.94%.

Question: What about the viability, T/C (second compound 0.3 µM, first compound 30 µM) of the same compound?
Answer: The viability, T/C was 4.56%.

From PubChem BioAssay AID1845217 (Molecular Pharmacology Branch, DTP, NCI, 2023)
